Measured values as given in patent US20110236921A1, “CELL SYSTEM” (GE HEALTHCARE UK LIMITED, priority 2010, published 2011).

How the values were obtained:
WM115-Glu cells = test: live-cell validation, cell viability (cell number) by nuclear-channel imaging, glycolytic cell line; assay type: cell-based, human; conditions: WM115-Glu (glucose-rich medium), 384-well live-cell plate, tested at 10.0 μM; live cells visible over full concentration range
Method: (§1) Live cells are clearly visible in the full concentration range for WM115-Glu cells, but not for WM115-Gal cells (low cell density in 0.1 μM→10.0 μM antimycin A). FIG. 4b is a graphical representation of the same data.
(§2) Antimycin A acts on respiration […] of the electron transport chain. Glucose-deprived cells (WM115-Gal) are dependent on mitochondrial respiration for ATP, and are therefore sensitive to antimycin A. In contrast, the WM115-Glu cells grown in glucose-rich media are reliant on glycolysis for ATP generation and as predicted, these cells appear resistant to antimycin A.

WM115-Gal cells = test: live-cell validation, cell viability (cell number) by nuclear-channel imaging, respiring cell line; assay type: cell-based, human; conditions: WM115-Gal (glucose-free galactose medium), 384-well live-cell plate; as low as 0.1 μM; low cell density at 0.1 μM→10.0 μM
Method: as §1, §2

Substance: antimycin A
- sensitivity of cells to drug (live cells visible / cell number) (WM115-Glu cells): resistant
- sensitivity of cells to drug (live cells visible / cell number) (WM115-Gal cells): susceptible
